Assay results: US7534456B2, “Agastache rugosa extract and composition containing tilianin isolated and purified from said extract having anti-inflammatory activity and anti-atherogenic activity” (Korea Research Institute of Bioscience and Biotechnology, priority 2001, dated 2009)
Marks after values point to notes of the source that are not given here.

Columns and labels:
[1] = test system: ICAM-1 expression for THP-1 cells; test: Inhibitory activity against TNF-α-induced ICAM-1 expression in THP-1 cells; type: cell-based, human; settings: 30 μM, TNF-α 10 ng/ml
Procedure: The following is the process of experiment on inhibitory activity against ICAM-1 expression for THP-1 cells.
THP-1 cells were cultured in CO2 incubator (5% CO2, 95% relative humidity, 37° C.) using RPMI-1640 broth (RPMI-1640, Gibco BRL 23400-021, 1.62%; 0.2% NaHCO3; 1% antimicrobial agents with penicillin and streptomycin mixed) with 10% fetal bovine serum (Gibco BRL 26140-079, FBS) added to the culture media. Samples for test were melted in DMSO, diluted with phosphate buffered saline solution (PBS) to below 5% and added to reactive solution by 5%, so as to set the concentration of DMSO with samples melted therein not to exceed 0.25% in the final solution. 200 μl of THP-1 cells (2.5×10^5 cells/ml) was divided into each well of 96-well with addition of 10 μl of solution prepared at constant concentration. After culturing it in 37° C. CO2 incubator for 1 hour, TNF-α (final concentration: 10 ng/ml) was added to induce ICAM-1 expression and it was cultured in CO2 incubator for 16 more hours. The reactive solution was made to isolate nonspecific bonding part by adding 25 μl of glutaraldehyde buffer solution (glutaraldehyde 2.08% in PBS) to set cells at well, washing it with PBST (0.005% tween-20 in PBS) and adding 3% skim milk. […] Then, the inhibition ratio of the expression by samples was calculated after measuring absorbance at 490 nm and ICAM-1 expression of THP-1 cells by TNF-α.

[2] = test system: atherosclerotic lesion; test: Inhibitory activity against atherosclerotic lesion in LDLR−/− mice on high cholesterol diet; type: in vivo; settings: 1.0% in high cholesterol diet, 8 weeks
From the text: The process of experiment on inhibitory activity of atherosclerotic lesion described in detail is as follows. Step I) Mouse Breeding and Experiment on Administration of the Extract of […] rugosa to the Mouse […] During the experiment, the mice had free access to water and food. Step II) Measurement of Atherosclerotic Lesion Models After 8 weeks of experiment, the blood was gathered through the eyes of all mice. Then, PBS ([…]) was flowed through the heart and the artery of mice for 10 minutes and subsequently paraformaldehyde was flowed through for 5 minutes. […] Six frozen sections (9 μm each), prepared beginning from the area of artery using microtome maintaining low temperature (-20° C.), were stained with Oil red O and counter-stained with Harris hematoxylin. These stained sections were then quantified by computer-assisted morphometry and the average lesion size was calculated for each animal group. In this manner, inhibitory activity against sample group's lesion according to outbreak of control group's lesion was calculated.

C[C@@H]1C[C@H]2[C@@H]3CCC4=CC(=O)C=C[C@]4(C)[C@@]3(F)[C@@H](O)C[C@]2(C)[C@@]1(O)C(=O)CO [Dexamethasone, dexamethasone, reference compound]
Inhibitory activity of ICAM-1 expression (%) [1]: 40.1 ± 1.7%

CC[C@H](C)C(=O)O[C@H]1C[C@@H](C)C=C2C=C[C@H](C)[C@H](CC[C@@H]3C[C@@H](O)CC(=O)O3)[C@H]21 [Lovastatin, lovastatin, reference compound]
Lesion size (μm^2) [2]: 291442.0 ± 96927.8 μm^2
Inhibitory activity (%) against atherosclerotic lesion ([2]; vs control group): 50.9*** %
